Results reported in PubChem BioAssay (NCI).
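Each compound was tested at five concentrations against cells in 96-well plates for 48 hours. GI50 marks 50% less growth. The concentration for full growth arrest is given as TGI.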

Experiments:
Test in all cases: growth of human tumour cells (NCI), 48 h
[1] = tested on: CAKI-1 renal
[2] = tested on: SK-OV-3 ovarian
[3] = tested on: MDA-MB-435
[4] = tested on: UO-31 renal
[5] = tested on: A549 NSCLC
[6] = tested on: HOP-62 NSCLC
[7] = tested on: SF-295 CNS
[8] = tested on: BT-549 breast
[9] = tested on: OVCAR-5 ovarian
[10] = tested on: HCT-116 colon
[11] = tested on: HOP-92 NSCLC
[12] = tested on: DU-145 prostate
[13] = tested on: OVCAR-8 ovarian
[14] = tested on: SR leukemia
[15] = tested on: SK-MEL-2 melanoma
[16] = tested on: MALME-3M melanoma
[17] = tested on: NCI-H23 lung
[18] = tested on: SF-268 CNS
[19] = tested on: OVCAR-4 ovarian
[20] = tested on: COLO 205 colon
[21] = tested on: NCI-H460 lung
[22] = tested on: SK-MEL-28 melanoma
[23] = tested on: LOX IMVI melanoma
[24] = tested on: T-47D breast
[25] = tested on: RPMI-8226 leukemia
[26] = tested on: HL-60(TB) leukemia
[27] = tested on: A498 renal
[28] = tested on: NCI-H226 lung
[29] = tested on: HCC-2998 colon
[30] = tested on: RXF 393 renal
[31] = tested on: CCRF-CEM leukemia
[32] = tested on: ACHN renal
[33] = tested on: 786-0 renal
[34] = tested on: HT29 colon
[35] = tested on: MOLT-4 leukemia
[36] = tested on: SF-539 CNS
[37] = tested on: NCI-H522 lung
[38] = tested on: HS 578T breast
[39] = tested on: KM12 colon
[40] = tested on: TK-10 renal
[41] = tested on: PC-3 prostate
[42] = tested on: K-562 leukemia
[43] = tested on: SK-MEL-5 melanoma
[44] = tested on: MDA-MB-231 breast
[45] = tested on: UACC-62 melanoma
[46] = tested on: EKVX NSCLC
[47] = tested on: U251 CNS
[48] = tested on: NCI/ADR-RES ovarian
[49] = tested on: IGROV1 ovarian
[50] = tested on: SN12C renal
[51] = tested on: SNB-75 CNS
[52] = tested on: HCT-15 colon
[53] = tested on: SW-620 colon
[54] = tested on: MCF7 breast
[55] = tested on: M14 melanoma
[56] = tested on: OVCAR-3 ovarian

Compound: O=C(Nc1ccc(Cl)cc1)c1cc2ccccc2cc1OP(=O)(O)O
- GI50 [1]: 1.77 µM
- TGI [1]: 11.1 µM
- GI50 [2]: 2.51 µM
- TGI [2]: 16.9 µM
- GI50 [3]: 3.27 µM
- TGI [3]: 32.3 µM
- GI50 [4]: 3.75 µM
- TGI [4]: > 100 µM
- GI50 [5]: 4.85 µM
- TGI [5]: > 100 µM
- GI50 [6]: 3.57 µM
- TGI [6]: 17 µM
- GI50 [7]: 8.6 µM
- TGI [7]: 31.9 µM
- GI50 [8]: 2.89 µM
- TGI [8]: 9.24 µM
- GI50 [9]: 6.51 µM
- TGI [9]: 42.3 µM
- GI50 [10]: 3 µM
- TGI [10]: 11.9 µM
- GI50 [11]: 2.46 µM
- TGI [11]: 8.45 µM
- GI50 [12]: 3.94 µM
- TGI [12]: 17.8 µM
- GI50 [13]: 4.73 µM
- TGI [13]: > 100 µM
- GI50 [14]: 23.7 µM
- TGI [14]: > 100 µM
- GI50 [15]: 3.58 µM
- TGI [15]: 24.4 µM
- GI50 [16]: 1.91 µM
- TGI [16]: 7.3 µM
- GI50 [17]: 2.42 µM
- TGI [17]: 9.95 µM
- GI50 [18]: 3.9 µM
- TGI [18]: 40 µM
- GI50 [19]: 4.88 µM
- TGI [19]: > 100 µM
- GI50 [20]: 14.5 µM
- TGI [20]: 27.8 µM
- GI50 [21]: 3.43 µM
- TGI [21]: 16.8 µM
- GI50 [22]: 4.88 µM
- TGI [22]: 55.3 µM
- GI50 [23]: 3.52 µM
- TGI [23]: 17.5 µM
- GI50 [24]: 3.98 µM
- TGI [24]: 35.2 µM
- GI50 [25]: 1.52 µM
- TGI [25]: 6.02 µM
- GI50 [26]: > 100 µM
- TGI [26]: > 100 µM
- GI50 [27]: 2.79 µM
- TGI [27]: 19.4 µM
- GI50 [28]: 2.97 µM
- TGI [28]: 16.9 µM
- GI50 [29]: 4.19 µM
- TGI [29]: 29.9 µM
- GI50 [30]: 6.64 µM
- TGI [30]: 71.1 µM
- GI50 [31]: 2.82 µM
- TGI [31]: > 100 µM
- GI50 [32]: 3.04 µM
- TGI [32]: 49.3 µM
- GI50 [33]: 3.59 µM
- TGI [33]: 13.4 µM
- GI50 [34]: 28.9 µM
- TGI [34]: > 100 µM
- GI50 [35]: 24.8 µM
- TGI [35]: > 100 µM
- GI50 [36]: 4.4 µM
- TGI [36]: 19.2 µM
- GI50 [37]: 3.29 µM
- TGI [37]: 38.1 µM
- GI50 [38]: 2.96 µM
- TGI [38]: 19.8 µM
- GI50 [39]: 3.14 µM
- TGI [39]: 13.7 µM
- GI50 [40]: 3.65 µM
- TGI [40]: 14.1 µM
- GI50 [41]: 2.92 µM
- TGI [41]: > 100 µM
- GI50 [42]: 53.8 µM
- TGI [42]: > 100 µM
- GI50 [43]: 2.89 µM
- TGI [43]: 8.83 µM
- GI50 [44]: 3.01 µM
- TGI [44]: 16.6 µM
- GI50 [45]: 2.66 µM
- TGI [45]: > 100 µM
- GI50 [46]: 2.82 µM
- TGI [46]: 25.2 µM
- GI50 [47]: 3.74 µM
- TGI [47]: 21.3 µM
- GI50 [48]: 3.51 µM
- TGI [48]: > 100 µM
- GI50 [49]: 3.81 µM
- TGI [49]: 95.2 µM
- GI50 [50]: 3.4 µM
- TGI [50]: > 100 µM
- GI50 [51]: 2.03 µM
- TGI [51]: 25.2 µM
- GI50 [52]: 3.55 µM
- TGI [52]: > 100 µM
- GI50 [53]: 4.07 µM
- TGI [53]: 37.5 µM
- GI50 [54]: 5.52 µM
- TGI [54]: 40.9 µM
- GI50 [55]: 3.74 µM
- TGI [55]: 56.6 µM
- GI50 [56]: 3.22 µM
- TGI [56]: 11.2 µM
